Patent US20160100579A1, “NEMATICIDAL N-(2-SUBSTITUTED 2-PHENYLETHYL)CARBOXAMIDES AND N-(2-SUBSTITUTED 2-PHENYLETHYL)-THIOCARBOXAMIDES” (priority 2013, published 2016)

Test: Measurement of log P values by HPLC on reversed phase columns (EEC directive 79/831 Annex V.A8; methods [a] pH 2.3, [b] pH 2.7, [c] pH 7.8)
Type: physicochemical
Experimental: Measurement of log P-values:
Measurement of log P values was performed according EEC directive 79/831 Annex V.A8 by HPLC (High Performance Liquid Chromatography) on reversed phase columns with the following methods:
^[a] Measurement was done at pH 2.3 with 0.1% phosphoric acid and acetonitrile as eluent with a linear gradient from 10% acetonitrile to 95% acetonitrile.
^[b] measurement of LC-MS was done at pH 2.7 with 0.1% formic acid in water and with acetonitrile (contains 0.1% formic acid) as eluent with a linear gradient from 10% acetonitrile to 95% acetonitrile.
^[c] Measurement with LC-MS was done at pH 7.8 with 0.001 molar ammonium hydrogen carbonate solution in water as eluent with a linear gradient from 10% acetonitrile to 95% acetonitrile.
Calibration was done with not branched alkan2-ones (with 3 to 16 carbon atoms) with known log P-values (measurement of log P values using retention times with linear interpolation between successive alkanones).. lambda-maX-values were determined using UV-spectra from 200 nm to 400 nm and the peak values of the chromatographic signals.

[1] = method [b]: LC-MS at pH 2.7, 0.1% formic acid in water / acetonitrile
[2] = method [c]: LC-MS at pH 7.8, 0.001 molar ammonium hydrogen carbonate in water / acetonitrile
[3] = method [b]: LC-MS, pH 2.7, 0.1% formic acid in water / acetonitrile
[4] = method [c]: LC-MS, pH 7.8, 0.001 molar ammonium hydrogen carbonate / acetonitrile
[5] = method [a]: HPLC, pH 2.3, 0.1% phosphoric acid / acetonitrile

Structure (SMILES)	log P [1]	log P [2]	logP [3]	other results
COC(c1ccc(Cl)cc1Cl)C1(NC(=O)c2c(F)cccc2C(F)(F)F)CC1 (stereo not shown) [Compound 149]	4.00^[b]	3.95^[c];	–	–
COC(c1ccc(F)cc1)C(C)NC(=O)c1c(F)cccc1C(F)(F)F (stereo not shown) [Compound 189]	3.24^[b]	3.19^[c];	–	–
COC(CNC(=O)c1c(C(F)F)nn(C)c1F)c1ccc(Cl)cc1Cl (stereo not shown) [Compound 45]	–	–	3.25^[b]	–
COC(c1ccc(F)cc1)C(C)NC(=O)c1ccccc1C(F)(F)F (stereo not shown) [Compound 190]	–	3.16^[c]	–	–
COC(c1ccc(Cl)cc1Cl)C(C)(C)NC(=O)c1ccccc1F (stereo not shown) [Compound 74]	–	–	4.80^[b]	logP [4]: 4.77^[c];
COC(c1ccc(Cl)cc1)C(C)(C)NC(=O)c1cccnc1Cl (stereo not shown) [Compound 81]	–	–	3.24^[b]	logP [4]: 3.23^[c];
Cc1ccsc1C(=O)NCC(OCC(C)C)c1ccc(Cl)cc1 (stereo not shown) [compound 7]	–	–	–	logP [5]: 4.49^[a]
CCOC(c1ccc(Cl)cc1Cl)C(C)NC(=O)c1c(C(F)F)nn(C)c1F (stereo not shown) [Compound 47]	–	–	4.20^[b]	–
COC(c1ccccc1Cl)C(C)NC(=O)c1ccccc1F (stereo not shown) [Compound 147]	3.44^[b]	3.42^[c];	–	–
COC(c1cc(Cl)cc(Cl)c1)C(C)NC(=O)c1c(C(F)F)nn(C)c1F (stereo not shown) [Compound 43]	–	–	3.70^[b]	–
COC(c1ccc(Cl)cc1)C(C)NC(=O)c1c(F)cccc1C(F)(F)F (stereo not shown) [Compound 134]	3.65^[b]	3.61^[c];	–	–
COC(c1ccc(Cl)cc1)C(C)(C)NC(=O)c1ccccc1Cl (stereo not shown) [Compound 84]	–	–	4.12^[b]	logP [4]: 3.87^[c];
CCC(NC(=O)c1c(C(F)F)nn(C)c1F)C(OC)c1ccc(Cl)cc1Cl (stereo not shown) [Compound 49]	–	–	3.94^[b]	–
COC(c1ccc(Cl)cc1Cl)C(C)(C)NC(=O)c1sccc1Cl (stereo not shown) [Compound 78]	–	–	5.34^[b]	logP [4]: 5.31^[c];
COC(c1ccc(Cl)cc1)C(C)NC(=O)c1cccnc1Cl (stereo not shown) [Compound 135]	2.65^[b]	2.62^[c];	–	–
COC(c1ccc(Cl)cc1)C(C)(C)NC(=O)c1c(F)cccc1F (stereo not shown) [Compound 82]	–	–	3.78^[b]	logP [4]: 3.79^[c];
C#CCOC(c1ccc(Cl)c(Cl)c1)C(C)(C)NC(=O)c1sccc1C (stereo not shown) [compound 3]	–	–	–	logP [5]: 4.58^[a]
COC(c1ccc(Cl)cc1)C(C)(C)NC(=O)c1ccccc1F (stereo not shown) [Compound 83]	–	–	4.24^[b]	logP [4]: 3.99^[c];
COC(c1ccc(Cl)cc1Cl)C1(NC(=O)c2c(F)cccc2F)CC1 (stereo not shown) [Compound 150]	3.57^[b]	3.53^[c];	–	–
COC(c1ccc(Cl)cc1)C(C)(C)NC(=O)c1ccccc1C(F)(F)F (stereo not shown) [Compound 85]	–	–	4.25^[b]	logP [4]: 3.99^[c];
COC(CNC(=O)c1cn(C)nc1C(F)F)c1ccccc1 (stereo not shown) [Compound 16]	–	–	1.93^[b]	–
COC(c1ccc(Cl)cc1)C(C)NC(=O)c1c(F)cccc1F (stereo not shown) [Compound 132, N-[1-(4-chlorophenyl)-1-methoxypropan-2-yl]-2,6-difluorobenzamide]	–	–	–	chromatographic logP (method [b]: LC-MS at pH 2.7, 0.1% formic acid in water / acetonitrile, read-out: log P): 3.12

Second part, led by results:

log P [1]	log P [2]	logP [3]	Structure (SMILES)	other results
4.37^[b]	4.42^[c];	–	CCOC(c1ccc(Cl)cc1Cl)C(C)NC(=O)c1sc(C)nc1C(F)(F)F (stereo not shown) [Compound 204]	–
–	–	3.73^[b]	COC(c1ccc(Cl)cc1Cl)C(C)NC(=O)c1cc(C)nn1C(F)F (stereo not shown) [compound 115]	–
2.89^[b]	3.03^[c];	–	CCOC(c1ccc(Cl)cc1Cl)C(C)NC(=O)c1cccnc1 (stereo not shown) [Compound 206]	–
–	–	3.13^[b]	COC(c1ccc(Cl)cc1Cl)C(C)NC(=O)c1c(C)nn(C)c1F (stereo not shown) [compound 13]	–
–	–	3.65^[b]	COC(c1ccc(Cl)cc1Cl)C(C)NC(=O)c1c(C(F)F)nn(C)c1F (stereo not shown) [compound 14]	–
3.33^[b]	3.26^[c];	–	COC(c1ccc(Cl)cc1Cl)C1(NC(=O)c2ccccc2[N+](=O)[O-])CC1 (stereo not shown) [Compound 211]	–
1.94^[b]	2.09^[c];	–	COC(c1ccccc1Cl)C(C)NC(=O)c1cccnc1 (stereo not shown) [Compound 207]	–
